Assay results as given in article PMC3937211, “Serine Carboxypeptidase SCPEP1 and Cathepsin A Play Complementary Roles in Regulation of Vasoconstriction via Inactivation of Endothelin-1” (PLoS Genetics, 2014).

What was measured:
mesenteric arteries = assay: Vessel reactivity ex vivo; set-up: species or system mouse; details: 10^−11–10^−8 M
Description: Vessel reactivity ex vivo was analyzed as described, [40]. Briefly, male mice were sacrificed at five months and their mesenteric arteries were isolated and mounted onto glass capillaries in an artereograph chamber filled with cold oxygenated Krebs solution (118.6 mM NaCl, 4.7 mM KCl, 1.2 mM KH2PO4, 1.2 mM MgSO4, 25.1 mM NaHCO3, 26 µM EDTA, 0.18% glucose, 2.5 mM CaCl2). The arteries were constantly perfused intraluminally with Krebs solution at 30 mmHg. After 45 minutes of equilibration vascular reactivity was measured in response to Norepinephrine (Sigma A-0937, 10^−9–10^−5 M), Acetylcholine (Sigma A-6625, 10^−9–10^−4 M), Sodium Nitroprusside (Calbiochem 56538, 10^−9–10^−4 M), Endothelin-1 (American Peptide Company 88-1-10, 10^−11–10^−8 M) and AI, (American Peptide Company 12-1-10, 10^−8–10^−4 M). Drugs were added extraluminally with a 30 min washout period in between each drug, during which the arteries were able to re-equilibrate to a baseline. To test vasodilatation arteries were pre-contracted with NE to 70% of their equilibration diameter. At least 3 concentration response curves were conducted for each vessel and at least 6 animals were studied for each genotype.

[1] = tested on: homogenates of cultured AVSMC; assay: Carboxypeptidase activity against ET-1 in homogenates of cultured AVSMC; assay type: biochemical, mouse; details: 50 µM ET-1
Text: Figure 1 Scpep1 has carboxypeptidase activity against ET-1. A. Carboxypeptidase activity against ET-1 in homogenates of cultured AVSMC from WT, Scpep1 ^−/−, CathA^S190A and Scpep1 ^−/− /CathA^S190A mice as well as from the cells of Scpep1 ^−/− /CathA^S190A mice transiently transfected with pCMV-GFP and pCMV-Scpep1 plasmids. AVSMC after the passage 3 were transfected or not with Scpep1-RGS-His-Tag and pEGFP-C1 plasmids. Forty-eight hours after transfection confluent cells were harvested, homogenized and tested for carboxypeptidase activity using 50 µM ET-1 as a substrate. Data are expressed as means (±S.D.) of 3 independent experiments performed with different cell cultures. * p<0.05 and ** p<0.01 in two-tailed unpaired t-test. B. Carboxypeptidase activity against ET-1 in homogenates of cultured AVSMC from WT mice transfected with Scpep1 and CathA shRNA. AVSMC after the passage 3 were transfected with pRFP-C-RS vectors expressing shRNA for mouse CathA and Scpep1 or non-effective 29-mer scrambled shRNA as indicated. Seventy-two hours after transfection the cells were harvested, and those expressing plasmids enriched by cell-sorting, homogenized and tested for carboxypeptidase activity using 50 µM ET-1 as a substrate. […] C. Carboxypeptidase activity against ET-1 of purified recombinant Scpep1. Scpep1 carrying a His6 tag at the C-terminus was expressed in stably transfected HT1080 cells and purified by affinity chromatography on Ni-NTA resin followed by anion-exchange chromatography as described. Carboxypeptidase activity was assayed with 50 µM ET-1 as a substrate and 0.4–0.8 µg of the purified enzyme in the reaction mixture in 50 mM sodium phosphate/50 mM sodium acetate buffer at pH 5.5, 6.5 and 7.5. Bars show mean values (±S.D.) of 3 independent experiments. […] The amino acid analysis of the reaction mixture determined that Scpep1 cleaves the C-terminal amino acid (Trp21) from ET-1 (not shown). […]
Carboxypeptidase activity in cultured AVSMC was measured against 50 µM ET-1 as previously described using the method measuring the liberation rate of the C-terminal amino acid of the peptide. […]

Substance: endothelin-1 [ET-1]
- vessel reactivity versus WT mice (mesenteric arteries; mesenteric arteries of CathA^S190A and Scpep1^−/− mice): higher
- vessel reactivity versus all other groups of mice (mesenteric arteries; mesenteric arteries of CathA^S190A/Scpep1^−/− mice): significantly higher
- carboxypeptidase activity against ET-1 ([1]; AVSMC of CathA^S190A mice, sodium acetate buffer pH 5.4, 30–180 min at 37°C, 3 independent experiments): ~10%
- carboxypeptidase activity against ET-1 ([1]; CathA^S190A/Scpep1^−/− mice, pH 5.4, 37°C): ~6%
- carboxypeptidase activity against ET-1 ([1]; Scpep1^−/− mice, relative to WT, pH 5.4, 37°C): ~70%
